Data from article PMC8445441, “Elucidating the mechanism by which synthetic helper peptides sensitize Pseudomonas aeruginosa to multiple antibiotics” (PLoS Pathogens, 2021).
Where two headings read alike, the source gives them in different places.

Legend:
P. aeruginosa PA14 = assay: microbe, parasite or virus in culture; set-up: MICa: MIC of the antibiotic / MICac: MIC of the antibiotic in the combination: unit not given beside the values; conditions: for FICI: antibiotic + D-11 (MICb/MICbc 128/4); for MICac: MIC of the antibiotic in the combination: with D-11 at MICbc 4
How it was run: (§1)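 CLSI broth dilution; MHB; ~1 × 10^6 CFU/mL suspension mixed equal volume with drug; 37 °C for 18 h; visual read; triplicate. Broth sometimes supplemented with PG, PE, PC, CL, LPS, MgCl2, CaCl2 or PAβN.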

P. aeruginosa ATCC27853 = assay: microbe, parasite or virus in culture; set-up: MICa: MIC of the antibiotic / MICac: MIC of the antibiotic in the combination: unit not given beside the values
How it was run: as §1

P. aeruginosa PAK = assay: microbe, parasite or virus in culture; set-up: MICa: MIC of the antibiotic / MICac: MIC of the antibiotic in the combination: unit not given beside the values; conditions: for MIC: Pseudomonas aeruginosa, 18 h, read-out: MICa: MIC of the antibiotic; for FICI / MICac: MIC of the antibiotic in the combination: strain PAK; for FICI: antibiotic + D-11 (MICb/MICbc 64/4); for MICac: MIC of the antibiotic in the combination: with D-11 at MICbc 4, unit not given
How it was run: as §1

P. aeruginosa NR-31041 = assay: microbe, parasite or virus in culture; set-up: MICa: MIC of the antibiotic / MICac: MIC of the antibiotic in the combination: unit not given beside the values; conditions: for MIC: Pseudomonas aeruginosa, NR31041, 18 h, read-out: MICa: MIC of the antibiotic; for FICI / MICac: MIC of the antibiotic in the combination: strain NR-31041; for FICI: antibiotic + D-11 (MICb/MICbc 64/4); for MICac: MIC of the antibiotic in the combination: with D-11 at MICbc 4, unit not given
How it was run: as §1

P. aeruginosa NR-31040 = assay: microbe, parasite or virus in culture; set-up: MICa: MIC of the antibiotic / MICac: MIC of the antibiotic in the combination: unit not given beside the values; conditions: for MIC: Pseudomonas aeruginosa, NR31040, 18 h, read-out: MICa: MIC of the antibiotic; for FICI / MICac: MIC of the antibiotic in the combination: strain NR-31040; for FICI: antibiotic + D-11 (MICb/MICbc 128/4); for MICac: MIC of the antibiotic in the combination: with D-11 at MICbc 4, unit not given
How it was run: as §1

P. aeruginosa HM-214 = conditions: strain HM-214; antibiotic + D-11 (MICb/MICbc 128/4)
How it was run: as §1

P. aeruginosa AUMC-Pa-4 = assay: microbe, parasite or virus in culture; conditions: for MIC: Pseudomonas aeruginosa, AUMCPA4, 18 h, read-out: MICa: MIC of the antibiotic; for FICI / MICac: MIC of the antibiotic in the combination: strain AUMC-Pa-4; for FICI: antibiotic + D-11 (MICb/MICbc 128/4); for MICac: MIC of the antibiotic in the combination: with D-11 at MICbc 4, unit not given
How it was run: as §1

P. aeruginosa AUMC-Pa-3 = assay: microbe, parasite or virus in culture; conditions: for MIC: Pseudomonas aeruginosa, AUMCPA3, 18 h, read-out: MICa: MIC of the antibiotic; for FICI / MICac: MIC of the antibiotic in the combination: strain AUMC-Pa-3; for FICI: antibiotic + D-11 (MICb/MICbc 128/4); for MICac: MIC of the antibiotic in the combination: with D-11 at MICbc 4, unit not given
How it was run: as §1

P. aeruginosa AUMC-Pa-5 = assay: microbe, parasite or virus in culture; conditions: for FICI: antibiotic + D-11 (MICb/MICbc 64/4); for MICac: MIC of the antibiotic in the combination: with D-11 at MICbc 4
How it was run: as §1

P. aeruginosa AUMC-Pa-6 = assay: microbe, parasite or virus in culture; conditions: for MICac: MIC of the antibiotic in the combination: with D-11 at MICbc 4
How it was run: as §1

P. aeruginosa PAO1 = assay: microbe, parasite or virus in culture; conditions: PAO1; for MIC: Pseudomonas aeruginosa, PAO1, 18 h, read-out: MICa: the MIC of antibiotics, S3 Table, antibiotic alone; for FICI / MICac: the MIC for the antibiotic in the combination: S3 Table
How it was run: as §1

[1] = tested on: clinical P. aeruginosa isolates; assay: microbe, parasite or virus in culture; conditions: Pseudomonas aeruginosa, 18 h, antibiotic alone
How it was run: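 MIC is the lowest drug concentration showing no visible growth after 18 h at 37 °C. Two-fold dilutions in MHB were combined with an equal volume of bacterial suspension (about 1 × 10^6 CFU/mL), following CLSI broth microdilution, in triplicate.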

P. aeruginosa AUMC-Pa-1 = conditions: strain AUMC-Pa-1; antibiotic + D-11 (MICb/MICbc 128/4)
How it was run: as §1

P. aeruginosa AUMC-Pa-2 = conditions: strain AUMC-Pa-2; antibiotic + D-11 (MICb/MICbc 64/4)
How it was run: as §1

[2] = strain AUMC-Pa-5, unit not given
[3] = strain AUMC-Pa-6, unit not given
[4] = read-out: Antibiotic sensibility (MIC) of clinical P. aeruginosa isolate AUMC-Pa-1, strain AUMC-Pa-1
[5] = read-out: Antibiotic sensibility (MIC) of clinical P. aeruginosa isolate AUMC-Pa-2, strain AUMC-Pa-2
[6] = read-out: Antibiotic sensibility (MIC) of clinical P. aeruginosa isolate AUMC-Pa-3, strain AUMC-Pa-3
[7] = read-out: Antibiotic sensibility (MIC) of clinical P. aeruginosa isolate AUMC-Pa-4, strain AUMC-Pa-4
[8] = read-out: Antibiotic sensibility (MIC) of clinical P. aeruginosa isolate AUMC-Pa-5, strain AUMC-Pa-5
[9] = read-out: Antibiotic sensibility (MIC) of clinical P. aeruginosa isolate AUMC-Pa-6, strain AUMC-Pa-6
[10] = read-out: Antibiotic sensibility (MIC) of clinical P. aeruginosa isolate HM-214, strain HM-214
[11] = read-out: Antibiotic sensibility (MIC) of clinical P. aeruginosa isolate NR-31040, strain NR-31040
[12] = read-out: Antibiotic sensibility (MIC) of clinical P. aeruginosa isolate NR-31041, strain NR-31041

`CO[C@H]1/C=C/O[C@@]2(C)Oc3c(C)c(O)c4c(O)c(c(/C=N/N5CCN(C)CC5)c(O)c4c3C2=O)NC(=O)/C(C)=C\C=C\[C@H](C)[C@H](O)[C@@H](C)[C@@H](O)[C@@H](C)[C@H](OC(C)=O)[C@@H]1C` [Rifampicin] was tested, and the MIC (P. aeruginosa PA14; Pseudomonas aeruginosa, PA14, 18 h, read-out: MICa: MIC of the antibiotic) was > 128 µM, the FICI (P. aeruginosa PA14; strain PA14) was 0.039 and the “MICac: MIC of the antibiotic in the combination” value (from here on “MICac: MIC of the antibiotic”) (P. aeruginosa PA14; strain PA14, unit not given) was 2. The MIC (P. aeruginosa ATCC27853; Pseudomonas aeruginosa, ATCC27853, 18 h, read-out: MICa: MIC of the antibiotic) was 16 µM, the MIC (P. aeruginosa PAK) was 16 µM and the FICI (P. aeruginosa PAK) was 0.066. For the same compound, the “MICac: MIC of the antibiotic” value (P. aeruginosa PAK) was 0.063, the MIC (P. aeruginosa NR-31041) was 32 µM and the FICI (P. aeruginosa NR-31041) was 0.064. The “MICac: MIC of the antibiotic” value (P. aeruginosa NR-31041) was 0.063, the MIC (P. aeruginosa NR-31040) was 16 µM and the FICI (P. aeruginosa NR-31040) was 0.063. For the same compound, the “MICac: MIC of the antibiotic” value (P. aeruginosa NR-31040) was 0.25, the FICI (P. aeruginosa HM-214) was 0.047 and the MIC (P. aeruginosa AUMC-Pa-4) was 16 µM. For the same compound, the FICI (P. aeruginosa AUMC-Pa-4) was 0.047, the “MICac: MIC of the antibiotic” value (P. aeruginosa AUMC-Pa-4) was 0.25 and the MIC (P. aeruginosa AUMC-Pa-3) was 16 µM. For the same compound, the FICI (P. aeruginosa AUMC-Pa-3) was 0.032, the “MICac: MIC of the antibiotic” value (P. aeruginosa AUMC-Pa-3) was 0.016 and the FICI (P. aeruginosa AUMC-Pa-5; strain AUMC-Pa-5) was 0.563. For the same compound, the “MICa: MIC of the antibiotic” value (P. aeruginosa AUMC-Pa-5; strain AUMC-Pa-5, antibiotic alone, unit not given) was 32, the “MICac: MIC of the antibiotic” value (P. aeruginosa AUMC-Pa-5; [2]) was 16 and the “MICa: MIC of the antibiotic” value (P. aeruginosa AUMC-Pa-6; strain AUMC-Pa-6, antibiotic alone, unit not given) was 32. The “MICac: MIC of the antibiotic” value (P. aeruginosa AUMC-Pa-6; [3]) was 2, the MIC (P. aeruginosa PAO1) was 32 µM and the FICI (P. aeruginosa PAO1; antibiotic + 2 μM D-11) was 0.064. For the same compound, the “MICac: the MIC for the antibiotic in the combination” value (P. aeruginosa PAO1; with 2 μM D-11) was 0.0625 µM, the “MICac: the MIC for the antibiotic in the combination” value (P. aeruginosa PAO1; with 4 μM D-11) was 0.01562 µM and the MIC [1, 4] was 32 µM. For the same compound, the MIC [1, 5] was 16 µM, the MIC [1, 6] was 16 µM and the MIC [1, 7] was 16 µM. It also gave an MIC [1, 8] of 32 µM, an MIC [1, 9] of 32 µM and an MIC [1, 10] of 16 µM. It also gave an MIC [1, 11] of 16 µM, an MIC [1, 12] of 32 µM and an FICI (P. aeruginosa AUMC-Pa-1) of 0.032. For the same compound, the FICI (P. aeruginosa AUMC-Pa-2) was 0.064.
With `C[C@@H]1O[C@@H]1P(=O)(O)O` [Fosfomycin] the FICI (P. aeruginosa PA14; strain PA14) was 0.281, the “MICa: MIC of the antibiotic” value (P. aeruginosa PA14; strain PA14, antibiotic alone, unit not given) was 128 and the “MICac: MIC of the antibiotic” value (P. aeruginosa PA14; strain PA14, unit not given) was 32. For the same compound, the FICI (P. aeruginosa ATCC27853; strain ATCC27853, antibiotic + D-11 (MICb/MICbc 32/4)) was 0.188, the “MICa: MIC of the antibiotic” value (P. aeruginosa ATCC27853; strain ATCC27853, antibiotic alone, unit not given) was 128 and the “MICac: MIC of the antibiotic” value (P. aeruginosa ATCC27853; strain ATCC27853, with D-11 at MICbc 4, unit not given) was 8. For the same compound, the MIC (P. aeruginosa PAK) was > 128 µM, the FICI (P. aeruginosa PAK) was 0.313 and the “MICac: MIC of the antibiotic” value (P. aeruginosa PAK) was 64. For the same compound, the MIC (P. aeruginosa NR-31041) was > 128 µM, the FICI (P. aeruginosa NR-31041) was 0.563 and the “MICac: MIC of the antibiotic” value (P. aeruginosa NR-31041) was >128/128. The MIC (P. aeruginosa NR-31040) was > 128 µM, the FICI (P. aeruginosa NR-31040) was 0.531 and the “MICac: MIC of the antibiotic” value (P. aeruginosa NR-31040) was >128/128. The FICI (P. aeruginosa HM-214) was 0.281, the MIC (P. aeruginosa AUMC-Pa-4) was > 128 µM and the FICI (P. aeruginosa AUMC-Pa-4) was 1.031. For the same compound, the “MICac: MIC of the antibiotic” value (P. aeruginosa AUMC-Pa-4) was >128/>128, the MIC (P. aeruginosa AUMC-Pa-3) was > 128 µM and the FICI (P. aeruginosa AUMC-Pa-3) was 0.156. For the same compound, the “MICac: MIC of the antibiotic” value (P. aeruginosa AUMC-Pa-3) was 32, the MIC (P. aeruginosa AUMC-Pa-5; Pseudomonas aeruginosa, AUMCPA5, 18 h, read-out: MICa: MIC of the antibiotic) was > 128 µM and the FICI (P. aeruginosa AUMC-Pa-5; strain AUMC-Pa-5) was 0.563. The “MICac: MIC of the antibiotic” value (P. aeruginosa AUMC-Pa-5; [2]) was >128/128, the MIC (P. aeruginosa AUMC-Pa-6; Pseudomonas aeruginosa, AUMCPA6, 18 h, read-out: MICa: MIC of the antibiotic) was > 128 µM and the FICI (P. aeruginosa AUMC-Pa-6; strain AUMC-Pa-6, antibiotic + D-11 (MICb/MICbc 64/4)) was 1.063. For the same compound, the “MICac: MIC of the antibiotic” value (P. aeruginosa AUMC-Pa-6; [3]) was >128/>128, the MIC (P. aeruginosa PAO1) was > 128 µM and the FICI (P. aeruginosa PAO1; antibiotic + 2 μM D-11) was 0.188. For the same compound, the FICI (P. aeruginosa PAO1; antibiotic + 4 μM D-11) was 0.188, the MIC [1, 4] was > 128 µM and the MIC [1, 5] was 128 µM. The MIC [1, 6] was > 128 µM, the MIC [1, 7] was > 128 µM and the MIC [1, 8] was > 128 µM. For the same compound, the MIC [1, 9] was > 128 µM, the MIC [1, 10] was > 128 µM and the MIC [1, 11] was > 128 µM. For the same compound, the MIC [1, 12] was > 128 µM, the FICI (P. aeruginosa AUMC-Pa-1) was 0.281 and the FICI (P. aeruginosa AUMC-Pa-2) was 0.188.
